According to PMC12095047, “Transport of phenoxyacetic acid herbicides by PIN-FORMED auxin transporters” (Nature Plants, 2025):
“And” between values parts separate entries of the source, which are not always exact repeats. Identical values can stand only once. Like-named read-outs stand apart in the source and are kept apart here.

Experiments:
PIN8 = target: T1, PIN8 (Arabidopsis thaliana, UniProt Q9LFP6); assay: SSM electrophysiology, KD by inhibition of the NPA binding current
T1 construct: made in house
T1 sequence (Q9LFP6 1-367): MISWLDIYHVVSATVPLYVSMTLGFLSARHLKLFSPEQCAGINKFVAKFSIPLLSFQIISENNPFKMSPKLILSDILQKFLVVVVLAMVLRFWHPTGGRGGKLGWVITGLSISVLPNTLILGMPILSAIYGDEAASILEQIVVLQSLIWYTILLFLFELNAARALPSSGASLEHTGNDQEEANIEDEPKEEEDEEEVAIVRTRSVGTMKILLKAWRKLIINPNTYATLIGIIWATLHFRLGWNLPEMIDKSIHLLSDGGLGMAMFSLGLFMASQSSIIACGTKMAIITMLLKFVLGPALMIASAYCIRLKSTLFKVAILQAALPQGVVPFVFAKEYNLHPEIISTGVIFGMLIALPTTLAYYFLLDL
Method: (§1) SSM, using a SURFE2R N1 from Nanion Technologies, was conducted as described. In brief, soy polar lipid mix (38% phosphatidyl choline, 30% phosphatidyl ethanolamine, 18% phosphatidyl inositol, 7% phosphatidic acid and 7% other soy lipids) and 1-palmitoyl-2-oleoyl-sn-glycero-3-phosphocholin were purchased from Avanti. Liposomes were prepared in Ringer solution without Ca^2+ (115 mM NaCl, 2.5 mM KCl, 1 mM NaHCO3, 10 mM HEPES pH7.4, 1 mM MgCl2) and homogenized using a Lipsofast (Avestin) with a […]. Triton X-100 was added to the liposomes to a final concentration of 1% (v/v). Protein was added to liposomes to a calculated lipid-to-protein ratio (LPR) of 10 unless stated otherwise. The detergent was removed using 400 mg ml^−1 Bio Beads (BioRad) overnight at 4 °C in a rotary shaker. Proteoliposomes were frozen in liquid nitrogen and kept at −80 °C until use. Proteoliposomes were diluted 1:5 in Ringer solution without Ca^2+, sonicated five times and then applied to the sensors by centrifugation (30 min, 3,000 g, 4 °C). Non-activating buffer was Ringer solution without Ca^2+ as described unless specified otherwise, and activating buffer contained the substrate of interest. In most instances we used a single-solution exchange experiment. In this case proteoliposomes, immobilized on the supported membrane, are kept in non-activating buffer as specified. At the beginning of the experiment the non-activating buffer is replaced with fresh identical non-activating buffer, and after 1 s, activating buffer (same buffer containing substrate) is added. After another second, the buffer is replaced with non-activating buffer again. Current response is recorded throughout the entire 3 s. For competition or inhibition, the respective compound was present in non-activating and activating solutions. Each experiment was performed on at least two individual sensors. On each sensor each measurement consists of three technical replicates where the mean is calculated. KD values were determined as described previously. Briefly, the binding current induced by 100 µM NPA was recorded in the presence of different concentrations of the substrate under investigation ranging between 0 µM and 1,000 µM present in the activating solution and the non-activating solution (Extended Data Fig. 5b). […] The maximum peak current was then plotted as a function of the concentration of the substrate under investigation and plotted against the degree of inhibition and fitted with a one-site binding model using GraphPad Prism V10.4.1 The half maximal concentration corresponds to the KD of the substrate under investigation.

[1] = target: T2, wild-type PIN8 proteoliposomes (Arabidopsis thaliana, UniProt Q9LFP6); assay: SSM electrophysiology, peak width (FWHM) of current response at LPR10 and LPR50; type: biochemical; conditions: for Rel. FWHM (% of LPR10): replicates
T2 construct: made in house
T2 sequence (Q9LFP6 1-367): T1 sequence (Q9LFP6 1-367)
Method: as §1

PIN8 N223A = target: T3, PIN8 N223A (Arabidopsis thaliana, UniProt Q9LFP6, N223A); type: biochemical; conditions: PIN8 N223A, Michaelis–Menten fit
T3 construct: made in house
Method: as §1
The protocol for expression and purification of AtPIN8 protein (Uniprot: Q9LFP6) in lauryl maltose neopentyl glycol was described previously. All point mutants were generated using Q5 Site-Directed mutagenesis kit (New England Biolabs). The C-flat Holey Carbon grids (CF-1.2/1.3, Cu-300 mesh) were glow-discharged for 45 s at 15 mA in a GloQube Plus (Quorum). […] After 1 h of incubation on ice, the sample was centrifuged at 16,000 g for 15 min before blotting to remove precipitation. A drop of 4 µl of each sample was applied to the glow-discharged grids, blotted with a Vitrobot Mark IV (ThermoFisher Scientific) using the following settings (temperature 4 °C, 100% humidity, blot time of 4 s, blot force −1) and vitrified in liquid ethane.

A. thaliana PIN8 = target: T4, A. thaliana PIN8 (Arabidopsis thaliana, UniProt Q9LFP6); assay: SSM electrophysiology, peak current response on PIN8 proteoliposomes; type: biochemical; conditions: 100 μM 2,4-D, 20 µM NPA
T4 construct: made in house
T4 sequence (Q9LFP6 1-367): T1 sequence (Q9LFP6 1-367)
Method: as §1

[2] = Peak current, sheet F2A (Fig. 2a, KD of substrate binding), individual sensors
[3] = read-out: Rel. Inhibition of NPA peak currents, 50 µM substrate, 100 µM NPA, individual sensors
[4] = read-out: Rel. Inhibition of NPA peak currents, 100 µM substrate, 100 µM NPA, individual sensors
[5] = read-out: Rel. Inhibition of NPA peak currents, 250 µM substrate, 100 µM NPA, individual sensors
[6] = read-out: Rel. Inhibition of NPA peak currents, 500 µM substrate, 100 µM NPA, individual sensors
[7] = read-out: Rel. Inhibition of NPA peak currents, 1000 µM substrate, 100 µM NPA, individual sensors
[8] = sheet F2A (Fig. 2a, KD of substrate binding), individual sensors, read-out: Peak current
[9] = 20 µM substrate, 100 µM NPA, individual sensors, read-out: Rel. Inhibition of NPA peak currents
[10] = 50 µM substrate, 100 µM NPA, individual sensors, read-out: Rel. Inhibition of NPA peak currents
[11] = 100 µM substrate, 100 µM NPA, individual sensors, read-out: Rel. Inhibition of NPA peak currents
[12] = 250 µM substrate, 100 µM NPA, individual sensors, read-out: Rel. Inhibition of NPA peak currents
[13] = 500 µM substrate, 100 µM NPA, individual sensors, read-out: Rel. Inhibition of NPA peak currents
[14] = 1000 µM substrate, 100 µM NPA, individual sensors, read-out: Rel. Inhibition of NPA peak currents

T3 sequence (Q9LFP6 whole entry N223A): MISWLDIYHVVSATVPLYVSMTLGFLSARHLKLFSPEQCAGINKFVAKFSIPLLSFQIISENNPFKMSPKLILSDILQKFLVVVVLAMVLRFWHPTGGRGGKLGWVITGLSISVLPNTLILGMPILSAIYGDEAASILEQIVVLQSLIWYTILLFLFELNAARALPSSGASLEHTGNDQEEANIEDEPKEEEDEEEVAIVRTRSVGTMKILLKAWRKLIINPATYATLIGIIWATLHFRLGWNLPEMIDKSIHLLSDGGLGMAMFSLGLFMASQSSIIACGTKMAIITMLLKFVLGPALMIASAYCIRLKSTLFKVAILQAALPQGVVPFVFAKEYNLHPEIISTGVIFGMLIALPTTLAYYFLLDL

SMILES | binding affinity to PIN8 in words (PIN8) | Kd (PIN8; [2]) | inhibition at 250 µM (PIN8; [5]) [%] | inhibition at 500 µM (PIN8; [6]) [%] | inhibition at 1000 µM (PIN8; [7]) [%] | Kd (PIN8; [8]) | inhibition at 20 µM (PIN8; [9]) [%] | inhibition at 50 µM (PIN8; [10]) [%] | inhibition at 100 µM (PIN8; [11]) [%] | inhibition at 250 µM (PIN8; [12]) [%] | inhibition at 500 µM (PIN8; [13]) [%] | inhibition at 1000 µM (PIN8; [14]) [%] | Rel. FWHM (% of LPR10) ([1]; LPR10) | Rel. FWHM (% of LPR10) ([1]; LPR50) | other results
O=C(O)COc1cc(Cl)c(Cl)cc1Cl [2,4,5-T, 2,4,5-trichlorophenoxyacetic acid] | highest affinity | 9.28 µM | 91 | 95.3 | 98.4 | 8.98 µM | – | – | – | – | – | – | – | – | inhibition at 1 µM (PIN8; read-out: Rel. Inhibition of NPA peak currents, 1 µM substrate, 100 µM NPA, individual sensors): 11.8%; inhibition at 5 µM (PIN8; read-out: Rel. Inhibition of NPA peak currents, 5 µM substrate, 100 µM NPA, individual sensors): 35.9%; inhibition at 20 µM (PIN8; read-out: Rel. Inhibition of NPA peak currents, 20 µM substrate, 100 µM NPA, individual sensors): 65.7%; inhibition at 50 µM (PIN8; [3]): 78.2%; inhibition at 100 µM (PIN8; [4]): 87.3%
Cc1ccc(OCC(=O)O)c(C)c1 [2,4-DMPA, 2-(2,4-dimethylphenoxy)acetic acid] | – | – | – | – | – | 205 µM and 139 µM and 178 µM | 9.25 | 21.8 | 37 | 61.3 | 78.8 | 92.8 | – | – | Kd (PIN8; inhibition of peak current elicited by 100 µM NPA, read-out: KD of substrate binding by PIN8): 174 ± 33 µM
O=C(O)CCc1ccc(Cl)cc1Cl [2,4-DPP, 3-(2,4-dichlorophenyl)-propionic acid] | higher affinity than 2,4-D | – | – | – | – | 18.1 µM and 22.4 µM and 23.3 µM | 37.2 | 51.9 | 63.6 | 77.8 | 77.9 | – | – | – | inhibition at 5 µM (PIN8; 5 µM substrate, 100 µM NPA, individual sensors, read-out: Rel. Inhibition of NPA peak currents): 15.1%
O=C(O)COc1ccc(Cl)cc1Cl [2,4D] | – | – | – | – | – | – | – | – | – | – | – | – | 1.043 % of LPR10 (2×) and 0.913 % of LPR10 | 1.565 % of LPR10 and 1.304 % of LPR10 and 1.239 % of LPR10 and 1.63 % of LPR10 | –
O=C(O)COc1ccccc1Cl [2-CPA, 2-chlorophenoxyacetic acid] | high affinity, comparable to that of IAA and 2,4-D | – | – | – | – | 106 µM and 112 µM and 101 µM | 19.9 | 33.3 | 57 | – | 94.3 | 99.8 | 0.9412 % of LPR10 and 1.059 % of LPR10 and 1 % of LPR10 | 1.824 % of LPR10 (2×) and 1.235 % of LPR10 and 1.647 % of LPR10 | Imax (PIN8 N223A): 3 ± 0.1 nA and 2.6 ± 0.1 nA; EC50 (PIN8 N223A; No transport = model could not be fit, read-out: EC50 of peak current response): 263 µM
Cc1ccccc1OCC(=O)O [2-MPA, 2-methylphenoxyacetic acid] | – | – | – | – | – | 284 µM and 209 µM and 256 µM | – | 13 | 27.5 | 53.9 | 74.7 | 82.9 | – | – | –
Cc1ccc(OCC(=O)O)cc1 [4-MPA, 4-methylphenoxyacetic acid] | – | – | – | – | – | 710 µM and 614 µM and 521 µM | – | – | 12.1 | 25.7 | 40.8 | 58.3 | – | – | inhibition at 2000 µM (PIN8; 2000 µM substrate, 100 µM NPA, individual sensors, read-out: Rel. Inhibition of NPA peak currents): 72.8%
Cc1cc(Cl)ccc1OCC(=O)O [MCPA, 2-methyl-4-chlorophenoxyacetic acid] | intermediate affinity | 149 µM and 159 µM and 103 µM | 65.4 | 78.3 | 88.6 | – | – | – | – | – | – | – | – | – | inhibition at 50 µM (PIN8; [3]): 25.1%; inhibition at 100 µM (PIN8; [4]): 41.7%
O=C(O)c1ccccc1C(=O)Nc1cccc2ccccc12 [NPA, 1-N-naphthylphthalamic acid] | – | – | – | – | – | – | – | – | – | – | – | – | 0.9324 % of LPR10 and 1.054 % of LPR10 and 1.014 % of LPR10 | 0.6892 % of LPR10 and 0.7297 % of LPR10 and 0.7703 % of LPR10 | effect on the PIN8 current response to 2,4-D (A. thaliana PIN8): inhibited; peak width of SSM-based current response as a function of lipid-to-protein ratio (LPR) ([1]; LPR10 versus LPR50): does not change with LPR
O=C(O)COc1ccccc1 [PA, phenoxyacetic acid] | – | 605 µM and 377 µM | 30.3 | 47.3 | 60.5 | 485 µM | – | – | – | – | – | – | – | – | –
